Literature values as cited in patent US8608968B2, “Compositions for bioremediation and methods for using” (Carus Corporation, priority 2006, dated 2013).

Settings: dimensionless

Structure (SMILES) | Henry's Law Constant
C=C [Ethene] | 8.76
C [Methane] | 27.2
ClC=C(Cl)Cl [Trichloroethene] | 0.48
C=CCl [Vinyl chloride] | 0.95
Cl/C=C\Cl [cis-1,2-dichloroethene] | 0.31
